From patent US20090306133A1, “New Acetyl Coenzyme A Carboxylase (ACC) Inhibitors And Uses In Treatments Of Obesity And Diabetes Mellitus - 087” (ASTRAZENECA AB, priority 2007, published 2009) come the findings set out here.

The target in test [1] is Human recombinant Acetyl-CoA Carboxylase 1 (ACC1) (Homo sapiens, UniProt Q13085). The test can be described thus: Assay X: ACC1 inhibition, inorganic phosphate (malachite green). It counts as biochemical. The following applies: Assay X: 37° C., 1.5 h, 5 min pre-incubation. Put shortly: (§1)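 Human recombinant enzyme pre-incubated 5 min with compound before substrate addition; reaction run 1.5 h, then inorganic phosphate detected by malachite green absorbance at 660 nm. Ten concentrations tested in triplicate; apparent IC50 from four-parameter curve fit.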

The target of test [2] is Human recombinant Acetyl-CoA Carboxylase 2 (ACC2) (Homo sapiens, UniProt O00763). The test can be described thus: Assay X: ACC2 inhibition, inorganic phosphate (malachite green). The test is classed as biochemical. Conditions: Assay X: 37° C., 1.5 h, 5 min pre-incubation. Put shortly:
as §1

Molecules are shown by their SMILES.

Human recombinant Acetyl-CoA Carboxylase 2 (ACC2), sequence (O00763 whole entry): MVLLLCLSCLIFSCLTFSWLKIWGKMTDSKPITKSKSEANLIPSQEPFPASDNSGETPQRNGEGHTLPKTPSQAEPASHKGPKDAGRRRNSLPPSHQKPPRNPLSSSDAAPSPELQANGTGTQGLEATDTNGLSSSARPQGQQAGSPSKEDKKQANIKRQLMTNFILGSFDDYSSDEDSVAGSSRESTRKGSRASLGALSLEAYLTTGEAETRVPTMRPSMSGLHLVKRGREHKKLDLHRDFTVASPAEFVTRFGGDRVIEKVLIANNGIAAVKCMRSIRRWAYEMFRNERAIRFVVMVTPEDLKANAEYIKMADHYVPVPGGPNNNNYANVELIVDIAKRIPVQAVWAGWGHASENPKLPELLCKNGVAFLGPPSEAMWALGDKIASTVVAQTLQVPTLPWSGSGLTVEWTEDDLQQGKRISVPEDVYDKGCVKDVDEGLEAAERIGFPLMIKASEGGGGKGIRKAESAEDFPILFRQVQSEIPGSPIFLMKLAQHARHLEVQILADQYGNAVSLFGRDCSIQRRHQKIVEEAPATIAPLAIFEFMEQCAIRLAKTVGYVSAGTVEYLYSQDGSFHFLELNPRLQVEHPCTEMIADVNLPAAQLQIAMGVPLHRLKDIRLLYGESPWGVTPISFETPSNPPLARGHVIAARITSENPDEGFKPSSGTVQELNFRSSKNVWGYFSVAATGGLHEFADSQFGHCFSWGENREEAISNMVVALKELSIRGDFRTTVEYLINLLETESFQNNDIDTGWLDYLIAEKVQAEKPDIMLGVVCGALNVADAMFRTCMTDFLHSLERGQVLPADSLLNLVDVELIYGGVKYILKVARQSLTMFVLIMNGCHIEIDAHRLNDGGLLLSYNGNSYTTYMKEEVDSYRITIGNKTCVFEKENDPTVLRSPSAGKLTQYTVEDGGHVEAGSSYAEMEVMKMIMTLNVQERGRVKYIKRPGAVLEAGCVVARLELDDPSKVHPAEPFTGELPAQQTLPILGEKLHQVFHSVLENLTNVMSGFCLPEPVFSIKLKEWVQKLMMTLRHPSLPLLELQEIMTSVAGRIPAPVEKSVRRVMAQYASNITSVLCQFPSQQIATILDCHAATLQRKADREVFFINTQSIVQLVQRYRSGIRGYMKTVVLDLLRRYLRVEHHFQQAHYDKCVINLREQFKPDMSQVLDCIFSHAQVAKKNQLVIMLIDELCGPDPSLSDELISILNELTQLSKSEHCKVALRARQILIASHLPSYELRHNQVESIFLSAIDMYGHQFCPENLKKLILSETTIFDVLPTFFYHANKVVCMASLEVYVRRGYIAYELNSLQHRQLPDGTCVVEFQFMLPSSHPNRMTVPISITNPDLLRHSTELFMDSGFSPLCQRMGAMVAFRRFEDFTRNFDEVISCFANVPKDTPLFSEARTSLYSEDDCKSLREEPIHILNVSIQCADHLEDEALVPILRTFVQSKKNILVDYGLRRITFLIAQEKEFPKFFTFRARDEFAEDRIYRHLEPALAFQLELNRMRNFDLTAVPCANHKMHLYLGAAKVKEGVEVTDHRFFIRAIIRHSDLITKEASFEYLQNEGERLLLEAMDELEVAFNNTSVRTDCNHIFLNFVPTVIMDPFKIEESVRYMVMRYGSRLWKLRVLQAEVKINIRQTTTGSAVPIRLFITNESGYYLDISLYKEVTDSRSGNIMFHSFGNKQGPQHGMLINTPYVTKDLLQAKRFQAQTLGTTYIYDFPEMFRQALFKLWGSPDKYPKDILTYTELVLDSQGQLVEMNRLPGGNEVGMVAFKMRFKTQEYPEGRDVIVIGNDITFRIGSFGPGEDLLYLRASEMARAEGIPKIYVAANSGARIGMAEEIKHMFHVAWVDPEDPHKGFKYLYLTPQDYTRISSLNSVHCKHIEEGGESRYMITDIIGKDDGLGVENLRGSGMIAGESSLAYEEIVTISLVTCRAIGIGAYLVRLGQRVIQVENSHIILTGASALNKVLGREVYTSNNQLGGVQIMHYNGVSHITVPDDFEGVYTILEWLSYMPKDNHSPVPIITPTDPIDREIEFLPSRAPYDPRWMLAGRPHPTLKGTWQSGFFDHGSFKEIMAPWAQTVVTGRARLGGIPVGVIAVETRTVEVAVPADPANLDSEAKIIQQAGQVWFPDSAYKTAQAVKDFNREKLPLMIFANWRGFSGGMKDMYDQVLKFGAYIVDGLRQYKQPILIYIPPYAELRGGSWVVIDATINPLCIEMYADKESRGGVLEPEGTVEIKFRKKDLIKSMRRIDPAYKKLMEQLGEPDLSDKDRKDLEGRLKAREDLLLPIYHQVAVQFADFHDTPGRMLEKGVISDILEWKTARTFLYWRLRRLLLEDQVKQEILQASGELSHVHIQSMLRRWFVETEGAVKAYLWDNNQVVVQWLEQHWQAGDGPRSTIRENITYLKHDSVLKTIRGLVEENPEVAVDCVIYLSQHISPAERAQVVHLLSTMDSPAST

For orientation: IC50 means the concentration at which inhibition is half-maximal. In the case of `CN1CCN(C2CCN(c3cc(C(=O)NC[C@H]4CC[C@H](CNC(=O)OC(C)(C)C)CC4)c4ccccc4n3)CC2)CC1` [Example 214, tert-Butyl[(trans-4-{[({2-[4-(4-methylpiperazin-1-yl)piperidin-1-yl]-quinolin-4-yl}carbonyl)amino]methyl}cyclohexyl)methyl]-carbamate], the values for the IC50 in test [1] and in test [2] were 3310 nM and 2240 nM, respectively.
The corresponding values for `CC(C)(C)OC(=O)NC[C@H]1CC[C@H](CNC(=O)c2cc(Oc3cccnc3)nc3ccccc23)CC1` [Example 215, tert-Butyl ({trans-4-[({[2-(pyridin-3-yloxy)quinolin-4-yl]carbonyl}amino)-methyl]cyclohexyl}methyl)carbamate] are > 20000 nM and 490 nM.
`CN1CCC(COc2cc(C(=O)NC[C@H]3CC[C@H](CNC(=O)OC(C)(C)C)CC3)c3ccccc3n2)CC1` [Example 216, tert-Butyl [(trans-4-{[({2-[(1-methylpiperidin-4-yl)methoxy]quinolin-4-yl}carbonyl)amino]methyl}cyclohexyl)methyl]-carbamate]: the values for the IC50 in test [1] and in test [2] were 3550 nM and 720 nM, respectively.
The corresponding values for `CN(C)CCNC(=O)C1CN(c2cc(C(=O)NC[C@H]3CC[C@H](CNC(=O)OC(C)(C)C)CC3)c3ccccc3n2)C1` [Example 217, tert-Butyl ({trans-4-[({[2-(3-{[2-(dimethylamino)ethyl]carbamoyl}azetidin-1-yl)quinolin-4-yl]carbonyl}amino)methyl]cyclohexyl}methyl)carbamate] are 4700 nM and 730 nM.
On the same counts, the results for `CC(C)(C)OC(=O)NC[C@H]1CC[C@H](CNC(=O)c2cc(-c3ccc(N)cc3)nc3ccccc23)CC1` [Example 218, tert-Butyl ({trans-4-[({[2-(4-aminophenyl)quinolin-4-yl]carbonyl}amino)-methyl]cyclohexyl}methyl)carbamate] are 210 nM and 60 nM.
On the same counts, the results for `CN(C)CCN1CCN(c2cc(C(=O)NC[C@H]3CC[C@H](CNC(=O)OC(C)(C)C)CC3)c3ccccc3n2)CC1=O` [Example 219, tert-Butyl {[trans-4-({[(2-{4-[2-(dimethylamino)ethyl]-3-oxopiperazin-1-yl}quinolin-4-yl)carbonyl]amino}methyl)cyclohexyl]methyl}carbamate] are 4580 nM and 900 nM.
Regarding `CC(C)(C)OC(=O)NC[C@H]1CC[C@H](CNC(=O)c2cc(N3CCN(C(=O)CO)CC3)nc3ccccc23)CC1` [Example 220, tert-Butyl [(trans-4-{[({2-[4-(hydroxyacetyl)piperazin-1-yl]quinolin-4-yl}carbonyl)amino]methyl}cyclohexyl)methyl]carbamate], the IC50 in test [1] was 9630 nM; in test [2], 1180 nM.
The corresponding values for `CC(C)(C)OC(=O)NC[C@H]1CC[C@H](CNC(=O)c2cc(N3CCC(OCc4ccc(F)cc4)CC3)nc3ccccc23)CC1` [Example 221, tert-Butyl {[trans-4-({[(2-{4-[(4-fluorobenzyl)oxy]piperidin-1-yl}quinolin-4-yl)carbonyl]amino}methyl)cyclohexyl]methyl}carbamate] are > 20000 nM and 1610 nM.
On the same counts, the results for `CC(C)(C)OC(=O)NC[C@H]1CC[C@H](CNC(=O)c2c(N)sc3ccccc23)CC1` [Example 222, tert-Butyl {[trans-4-({[(2-amino-1-benzothiophen-3-yl)carbonyl]amino}methyl)-cyclohexyl]methyl}carbamate] are 9100 nM and 3400 nM.
The corresponding values for `CCNC(=O)Nc1sc2ccccc2c1C(=O)NC[C@H]1CC[C@H](CNC(=O)OC(C)(C)C)CC1` [Example 223, tert-Butyl [(trans-4-{[({2-[(ethylcarbamoyl)amino]-1-benzothiophen-3-yl}carbonyl)amino]methyl}cyclohexyl)methyl]carbamate] are 1160 nM and 230 nM.
